# Results as given in patent publication EP0461869A2, “Chemotherapeutic agents” (MERCK & CO. INC., priority 1990, dated 1991).
# Key:
# [1] = target: T1, Farnesyl-protein transferase from bovine brain (partially purified enzyme preparation) (Bos taurus, UniProt P29702+P49355); experiment: Competition of Ras farnesylation by polyisoprenoids and peptides (Hepes-buffered assay, immunoprecipitation and nitrocellulose filtration); assay type: biochemical; conditions: for IC50: [Leu68]RAS1(term.)CVLS at 1 µM, 0.5 µM [3H]FPP, 10 min at 24° C, average of 2-5 determinations, >> = no competition at the highest concentration tested; for competition of the farnesylation reaction (in words): 0.5 µM [3H]FPP and 1 µM Ras
# T1 construct: the indicated compounds were incubated with this partially purified enzyme preparation; from tissue; host or cells: bovine brain; chromatographed on DEAE-Sephacel and N-octyl agarose
# Experimental: Enzyme reactions were analyzed by SDS-PAGE (sodium dodecyl sulfate/polyacrylamide gel electrophoresis) or immunoprecipitation. For gel analysis, each labeling reaction was boiled for 3 min in buffer containing 1% SDS/100 mM Tris-Cl, pH 6.8/10% glycerol/1% 2-mercaptoethanol, and loaded directly on 13.7% polyacrylamide gels. Radiolabeled Ras was visualized by autoradiography after fluorographic enhancement with Enlightning (New England Nuclear). For immunoprecipitation of radiolabelled Ras, reactions were first extracted with Triton X-114 using a modification of the procedure of Bordier (J. Biol. Chem. 256:1604-1607(1981). An aliquot (150 µl) of 1% Triton X-114 (Pierce) was added to the 50 µl reaction mix to achieve a final Triton X-114 concentration of 0.75%. Following 10 min. on ice, the tubes were transfered to a 37°C bath for 3 min. The cloudy solution was then centrifuged at 10,000 x g for 5 min. at room temperature. The upper aqueous phase was removed, and the detergent phase was diluted by the addition of 150 µl cold phosphate-buffed saline plus 150 µl of Ras monoclonal antibody Y13-259 coupled to Sepharose-protein A beads (Gutierrez et al. EMBO J. 8:1093-1098(1989) and Hancock et al. Cell 57:1167-1177(1989).
# Farnesyl-protein transferase from bovine brain was chromatographed on DEAE-Sephacel (Pharmacia, 0-0.8 M NaCl gradient elution) and N-octyl agarose (Sigma, 0-0.6 M NaCl gradient elution). […] Reactions were analyzed by immunoprecipitation without the Triton X-114 extraction step followed by Nitrocellulose filtration.
# [2] = target: bovine brain farnesylprotein transferase activity (Bos taurus, UniProt P29702+P49355); experiment: Apparent Km estimation for farnesylation of Ras, varying [14C]FPP and [Leu61]Ha Ras concentration; assay type: biochemical; conditions: [14C]FPP varied 0.03-30 µM, [Leu61]Ha Ras varied 0.03-250 µM; estimated
# Experimental: Polyisoprenylation of Ras⁻ [³H]mevalonic acid (35 Ci/mmol) and [³H]farnesyl-PPi(FPP) FPP (20 Ci/mmol) were purchased from New England Nuclear. [¹⁴C]FPP (49.7 mCi/mmol) was prepared enzymatically from partially purified prenyl transferase, [4-¹⁴C]isopentyl-PPi (47.9 mCi/mmol, Amersham), and geranyl-PPi. Reactions contained 280 pmol (10 µCi) of [³H]mevalonic acid, 500 pmol (0.025 µCi) of [¹⁴C]FPP or 25 pmol (0.5 µci) of [³H]FPP. In a standard 50 µl reaction, 250 pmol of Ras purified from E. coli (Gibbs et al. Proc. Natl. Acad. Sci. USA 86:6630-6634(1989)) was added to 35 µl of rabbit reticulocyte lysate (Promega, L4210) or a tissue extract (100,00 x g supernatant, 10 mg/ml). Buffer conditions were adjusted by the addition of one-tenth volume of 500 mM Tris-Cl, pH 8.0/50 mM MgCl₂ or one-tenth volume of 500 mM NaHepes, pH 7.5/50 mM MgCl₂/50mM dithiothreitol. In the Tris-buffered assay, the reactions were incubated for 1 hour at 24°C. Reaction velocities in the Hepes buffered assays were at least four times greater, and incubations were for 10 minutes at 24°C. Tissue extracts were prepared as described previously [(ethylenebis(oxyethylenenitrilo)]tetra-acetic acid in buffer containing 50 mM Tris-Cl, pH 8.0/1 mM EGTA/1 mM MgCl₂/1 mM dithiothreitol/10 µl/ml aprotinin/0.5 mM phenylmethlysulfonyl fluoride. […]
Compound,IC50 [1],competition of the farnesylation reaction (in words) [1],Km [2]
CC(C)=CCC/C(C)=C/COP(=O)(O)OP(=O)(O)O [Geranyl-PPi],67 µM,–,–
Cys-Val-Leu-Ser (CVLS; printed: Cys-Val-Leu-Ser),2.2 µM,–,–
CC(C)=CCOP(=O)(O)OP(=O)(O)O [Dimethylallyl-PPi],325 µM,–,–
CC(C)=CCCC(C)=CCCC(C)=CCO [Farnesol],> 100 µM,inactive,–
CC(C)=CCC/C(C)=C/CC/C(C)=C/CC/C(C)=C/CO [Geranylgeraniol],> 100 µM,inactive,–
"S-(trans, trans) farnesyl-CVIM",1.4 µM,–,–
CC(C)=CCC/C(C)=C/CC/C(C)=C/COP(=O)(O)OP(=O)(O)O [Farnesyl-PPi],0.7 µM,potently inhibited,0.3 µM
"S-(trans, trans) farnesyl-CVLS",28 µM,–,–
CC(C)=CCC/C(C)=C/CC/C(C)=C/CC/C(C)=C/COP(=O)(O)OP(=O)(O)O [Geranylgeranyl-PPi],1.4 µM,potently inhibited,–
